Reference: patent US9127008B2, “Morphine sulfate methanolic solvate, processes for making same and related compositions and methods for treating pain” (Johnson Matthey Public Limited Company, priority 2013, dated 2015)
Read-outs that look alike come from different tables or passages of the source.

Legend:
[1] = 2 months under air at room temperature
[2] = Storage of morphine sulfate in moisturizing chamber (moist room temperature air), ABUK/water/ethanol analysis; format: physicochemical; conditions: after several days in moisturizing chamber

| Compound | methanol content after storage [1] [% by weight] | water content after storage [1] [% by weight] | ABUK level after storage ([1]; morphine base had 5 ppm ABUK at start) [ppm] | ABUK level after storage ([2]; constant flow of moist room temperature air, 17 ppm ABUK before) [ppm] | ethanol content after storage ([2]; 0.95% before (gas chromatography)) [%] | water content after storage ([2]; 5.25% before (Karl Fischer)) [%] |
| --- | --- | --- | --- | --- | --- | --- |
| CN1CC[C@]23c4c5ccc(O)c4O[C@H]2[C@@H](O)C=C[C@H]3[C@H]1C5 [morphine base, morphine] | 0.08 | 5.70 | 117 |  |  |  |
| CN1CC[C@]23c4c5ccc(O)c4O[C@H]2[C@@H](O)C=C[C@H]3[C@H]1C5.O=S(=O)(O)O [morphine sulfate] |  |  |  | 123 | 0.11 | 9.8 |
